Experimental data reported in US11155586B2, “Cystine knot scaffold platform” (Genentech, Inc., priority 2015, dated 2021).
Positions of bridges follow the written chain, without caps; N, C: chain ends. Residues, ends and D or L forms follow the SMILES beside them.

Target: T1, hVEGF(8-109) (Homo sapiens, UniProt P15692)
T1 construct: hVEGF(8-109) or BSA were coated on 384-well MAXISORP™ immunoplates
T1 sequence (P15692 214-315): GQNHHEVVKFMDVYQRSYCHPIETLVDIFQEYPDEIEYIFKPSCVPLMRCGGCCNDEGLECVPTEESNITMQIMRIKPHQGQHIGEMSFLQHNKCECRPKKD
Test: Spot phage ELISA
Type: binding
Experimental: After four rounds of binding selection, individual phage clones were picked and inoculated into 450 μl 2YT media containing 50 µg/ml Carbenecillin and M13-KO7 helper phage in 96-well blocks, which were grown at 37° C. overnight. The supernatant was analyzed with spot phage ELISA as follows: hVEGF(8-109) or BSA were coated on 384-well MAXISORP™ immunoplates and phage supernatant diluted (1:3) with PBT buffer was added to the wells. The plates were washed and bound phage was detected with anti-M13-HRP followed by TMB substrate. In these assays, phage binding to BSA alone was tested in parallel to assess background binding. Clones whose binding signals for hVEGF-A (8-109) were more than 3 times higher than to BSA (background) were considered positive. Positive clones were subjected to DNA sequence analysis.

[1] = spot phage ELISA signal, EETI-II-based binders against hVEGF-A, Table 19
[2] = VEGF_CKP9 Loop1/Loop5 affinity-matured variants, Table 24
[3] = loop 2 variants based on 9.54 framework, Table 26

Structure (SMILES)	S/N (signal to noise ratio as compared to BSA control) (Table 24)	ELISA [2]	other results
CC(C)C[C@@H]1NC(=O)[C@@H]2CSSC[C@@H](C(=O)NCC(=O)O)NC(=O)[C@H](Cc3ccccc3)NC(=O)CNC(=O)[C@H](CC(N)=O)NC(=O)[C@@H]3CCCN3C(=O)CNC(=O)[C@@H]3CSSC[C@H](NC(=O)[C@H](Cc4ccc(O)cc4)NC(=O)[C@H](CCC(N)=O)NC(=O)[C@H](CCCCN)NC(=O)[C@H](Cc4ccccc4)NC(=O)[C@H](CCCNC(=N)N)NC(=O)[C@H]([C@@H](C)O)NC(=O)[C@H]([C@@H](C)O)NC(=O)[C@@H]4CCCN4C(=O)[C@@H](NC(=O)CN)CSSC[C@H](NC(=O)CNC(=O)[C@H](C)NC1=O)C(=O)N[C@@H](C(C)C)C(=O)N3)C(=O)N[C@@H](CCCCN)C(=O)N[C@@H](CCC(N)=O)C(=O)N[C@@H](CC(=O)O)C(=O)N[C@@H](CO)C(=O)N[C@@H](CC(=O)O)C(=O)N2 [VEGF_CKP6] (H-GCPTTRFKQYCKQDSDCLAGCVCGPNGFCG-OH; disulfide 2-21, 11-23, 17-29; N-terminus and C-terminus assumed)			S/N (signal to noise ratio as compared to BSA control) (Table 19): 51.9; ELISA [1]: 3.5
CC(C)C[C@@H]1NC(=O)[C@@H]2CSSC[C@H](NC(=O)CNC(=O)[C@H](Cc3c[nH]c4ccccc34)NC(=O)[C@H](Cc3ccccc3)NC(=O)[C@@H]3CCCN3C(=O)[C@H](CCC(N)=O)NC(=O)[C@H](CC(C)C)NC(=O)[C@H](C(C)C)NC(=O)[C@H](CC(=O)O)NC(=O)[C@@H](NC(=O)CN)CSSC[C@@H](C(=O)N[C@H](C(=O)N[C@H]3CSSC[C@@H](C(=O)NCC(=O)O)NC(=O)[C@H](CO)NC(=O)[C@H](CCC(N)=O)NC(=O)[C@H](Cc4ccc(O)cc4)NC(=O)[C@H](Cc4c[nH]c5ccccc45)NC(=O)[C@H](Cc4c[nH]cn4)NC3=O)C(C)C)NC(=O)CNC(=O)[C@H](C)NC1=O)C(=O)N[C@@H](CCCCN)C(=O)N[C@@H](CCC(N)=O)C(=O)N[C@@H](CC(=O)O)C(=O)N[C@@H](CO)C(=O)N[C@@H](CC(=O)O)C(=O)N2 [VEGF_CKP9.2] (H-GCDVLQPFWGCKQDSDCLAGCVCHWYQSCG-OH; disulfide 2-21, 11-17, 23-29 (inferred); N-terminus and C-terminus assumed)	31.1	2.4	
CC[C@H](C)[C@@H]1NC(=O)[C@H](CCC(N)=O)NC(=O)[C@@H](NC(=O)CN)CSSC[C@@H](C(=O)N[C@H](C(=O)N[C@H]2CSSC[C@@H](C(=O)NCC(=O)O)NC(=O)[C@H](CO)NC(=O)[C@H](CC(N)=O)NC(=O)[C@H](Cc3ccc(O)cc3)NC(=O)[C@H](Cc3ccccc3)NC(=O)[C@H](Cc3c[nH]cn3)NC2=O)C(C)C)NC(=O)CNC(=O)[C@H](C)NC(=O)[C@H](CC(C)C)NC(=O)[C@@H]2CSSC[C@H](NC(=O)CNC(=O)[C@H](Cc3c[nH]c4ccccc34)NC(=O)[C@H](Cc3ccccc3)NC(=O)[C@@H]3CCCN3C(=O)[C@H](CCC(N)=O)NC(=O)[C@H](CO)NC1=O)C(=O)N[C@@H](CCCCN)C(=O)N[C@@H](CCC(N)=O)C(=O)N[C@@H](CC(=O)O)C(=O)N[C@@H](CO)C(=O)N[C@@H](CC(=O)O)C(=O)N2 [VEGF_CKP9.3] (H-GCQISQPFWGCKQDSDCLAGCVCHFYNSCG-OH; disulfide 2-21, 11-17, 23-29 (inferred); N-terminus and C-terminus assumed)	24.5	1.6	
CC(C)C[C@@H]1NC(=O)[C@@H]2CSSC[C@H](NC(=O)CNC(=O)[C@H](Cc3c[nH]c4ccccc34)NC(=O)[C@H](Cc3ccccc3)NC(=O)[C@@H]3CCCN3C(=O)[C@H](CCC(N)=O)NC(=O)[C@H]([C@@H](C)O)NC(=O)[C@H](CCCNC(=N)N)NC(=O)[C@H](CCC(N)=O)NC(=O)[C@@H](NC(=O)CN)CSSC[C@@H](C(=O)N[C@H](C(=O)N[C@H]3CSSC[C@@H](C(=O)NCC(=O)O)NC(=O)[C@H](CO)NC(=O)[C@H](CCC(N)=O)NC(=O)[C@H](Cc4ccc(O)cc4)NC(=O)[C@H](Cc4c[nH]c5ccccc45)NC(=O)[C@H](CCCNC(=N)N)NC3=O)C(C)C)NC(=O)CNC(=O)[C@H](C)NC1=O)C(=O)N[C@@H](CCCCN)C(=O)N[C@@H](CCC(N)=O)C(=O)N[C@@H](CC(=O)O)C(=O)N[C@@H](CO)C(=O)N[C@@H](CC(=O)O)C(=O)N2 [VEGF_CKP9.22] (H-GCQRTQPFWGCKQDSDCLAGCVCRWYQSCG-OH; disulfide 2-21, 11-17, 23-29 (inferred); N-terminus and C-terminus assumed)	17.2	1.2	
CC[C@H](C)[C@@H]1NC(=O)[C@H](CC(N)=O)NC(=O)[C@@H](NC(=O)CN)CSSC[C@@H](C(=O)N[C@H](C(=O)N[C@H]2CSSC[C@@H](C(=O)NCC(=O)O)NC(=O)[C@H](CO)NC(=O)[C@H](CCC(N)=O)NC(=O)[C@H](Cc3ccc(O)cc3)NC(=O)[C@H](Cc3ccc(O)cc3)NC(=O)[C@H](CCC(N)=O)NC2=O)C(C)C)NC(=O)CNC(=O)[C@H](C)NC(=O)[C@H](CC(C)C)NC(=O)[C@@H]2CSSC[C@H](NC(=O)CNC(=O)[C@H](Cc3c[nH]c4ccccc34)NC(=O)[C@H](Cc3ccccc3)NC(=O)[C@@H]3CCCN3C(=O)[C@H](CC(C)C)NC(=O)[C@H](CCSC)NC1=O)C(=O)NCC(=O)N[C@@H](CC(C)C)C(=O)N[C@@H](CC(=O)O)C(=O)N[C@@H](Cc1ccc(O)cc1)C(=O)N[C@@H](CC(=O)O)C(=O)N2 [VEGF_CKP9.54.2] (H-GCNIMLPFWGCGLDYDCLAGCVCQYYQSCG-OH; disulfide 2-21, 11-17, 23-29; N-terminus and C-terminus assumed)			S/N (signal to noise ratio as compared to BSA control) (Table 26): 26; ELISA [3]: 0.1
CC[C@H](C)[C@@H]1NC(=O)[C@H](CC(N)=O)NC(=O)[C@@H](NC(=O)CN)CSSC[C@@H](C(=O)N[C@H](C(=O)N[C@H]2CSSC[C@@H](C(=O)NCC(=O)O)NC(=O)[C@H](CO)NC(=O)[C@H](CCC(N)=O)NC(=O)[C@H](Cc3ccc(O)cc3)NC(=O)[C@H](Cc3ccc(O)cc3)NC(=O)[C@H](CCC(N)=O)NC2=O)C(C)C)NC(=O)CNC(=O)[C@H](C)NC(=O)[C@H](CC(C)C)NC(=O)[C@@H]2CSSC[C@H](NC(=O)CNC(=O)[C@H](Cc3c[nH]c4ccccc34)NC(=O)[C@H](Cc3ccccc3)NC(=O)[C@@H]3CCCN3C(=O)[C@H](CC(C)C)NC(=O)[C@H](CCSC)NC1=O)C(=O)NCC(=O)N1CCC[C@H]1C(=O)N[C@@H](CC(=O)O)C(=O)N[C@@H](CC(C)C)C(=O)N[C@@H](CCC(N)=O)C(=O)N2 [VEGF_CKP9.54.59] (H-GCNIMLPFWGCGPDLQCLAGCVCQYYQSCG-OH; disulfide 2-21, 11-17, 23-29; N-terminus and C-terminus assumed)			S/N (signal to noise ratio as compared to BSA control) (Table 26): 35.4; ELISA [3]: 2.3
CC(C)C[C@@H]1NC(=O)[C@@H]2CSSC[C@H](NC(=O)CNC(=O)[C@H](Cc3c[nH]c4ccccc34)NC(=O)[C@H](CC(C)C)NC(=O)[C@@H]3CCCN3C(=O)[C@H](CCC(=O)O)NC(=O)[C@H](Cc3ccccc3)NC(=O)[C@H](CC(C)C)NC(=O)[C@H](CCCCN)NC(=O)[C@@H](NC(=O)CN)CSSC[C@@H](C(=O)N[C@H](C(=O)N[C@H]3CSSC[C@@H](C(=O)NCC(=O)O)NC(=O)[C@H](CO)NC(=O)[C@H](CCC(=O)O)NC(=O)[C@H](Cc4ccc(O)cc4)NC(=O)[C@H](Cc4c[nH]c5ccccc45)NC(=O)[C@H](CCCNC(=N)N)NC3=O)C(C)C)NC(=O)CNC(=O)[C@H](C)NC1=O)C(=O)N[C@@H](CCCCN)C(=O)N[C@@H](CCC(N)=O)C(=O)N[C@@H](CC(=O)O)C(=O)N[C@@H](CO)C(=O)N[C@@H](CC(=O)O)C(=O)N2 [VEGF_CKP9.96] (H-GCKLFEPLWGCKQDSDCLAGCVCRWYESCG-OH; disulfide 2-21, 11-17, 23-29; N-terminus and C-terminus assumed)	18.4	1.2	
CC[C@H](C)[C@@H]1NC(=O)[C@H](CC(=O)O)NC(=O)[C@H](Cc2c[nH]cn2)NC(=O)[C@@H]2CCCN2C(=O)[C@H](CCC(=O)O)NC(=O)[C@H](Cc2c[nH]c3ccccc23)NC(=O)[C@@H]2CCCN2C(=O)[C@H]([C@@H](C)O)NC(=O)[C@H](CCCNC(=N)N)NC(=O)[C@@H](NC(=O)CN)CSSC[C@@H]2NC(=O)CNC(=O)[C@H](C)NC(=O)[C@H](CC(C)C)NC(=O)[C@@H]3CSSC[C@@H](C(=O)NCC(=O)O)NC(=O)[C@H](Cc4ccccc4)NC(=O)CNC(=O)[C@H](CC(N)=O)NC(=O)[C@@H]4CCCN4C(=O)CNC(=O)[C@H](CSSC[C@H](NC(=O)[C@H]([C@@H](C)O)NC1=O)C(=O)N[C@@H](CCCCN)C(=O)N[C@@H](CCC(N)=O)C(=O)N[C@@H](CC(=O)O)C(=O)N[C@@H](CO)C(=O)N[C@@H](CC(=O)O)C(=O)N3)NC(=O)[C@H](C(C)C)NC2=O [VEGF_CKP11] (H-GCRTPWEPHDITCKQDSDCLAGCVCGPNGFCG-OH; disulfide 2-23, 13-25, 19-31; N-terminus and C-terminus assumed)			S/N (signal to noise ratio as compared to BSA control) (Table 19): 57.5; ELISA [1]: 4.1
